Target: T1, TcLAP (T. cruzi acidic M17 leucyl-aminopeptidase; LAPTc) (Trypanosoma cruzi, UniProt Q4DZJ3)
T1 construct: gene Tc00.1047053508799.240; recombinant TcLAP (rTcLAP)
T1 sequence (Q4DZJ3 1-520): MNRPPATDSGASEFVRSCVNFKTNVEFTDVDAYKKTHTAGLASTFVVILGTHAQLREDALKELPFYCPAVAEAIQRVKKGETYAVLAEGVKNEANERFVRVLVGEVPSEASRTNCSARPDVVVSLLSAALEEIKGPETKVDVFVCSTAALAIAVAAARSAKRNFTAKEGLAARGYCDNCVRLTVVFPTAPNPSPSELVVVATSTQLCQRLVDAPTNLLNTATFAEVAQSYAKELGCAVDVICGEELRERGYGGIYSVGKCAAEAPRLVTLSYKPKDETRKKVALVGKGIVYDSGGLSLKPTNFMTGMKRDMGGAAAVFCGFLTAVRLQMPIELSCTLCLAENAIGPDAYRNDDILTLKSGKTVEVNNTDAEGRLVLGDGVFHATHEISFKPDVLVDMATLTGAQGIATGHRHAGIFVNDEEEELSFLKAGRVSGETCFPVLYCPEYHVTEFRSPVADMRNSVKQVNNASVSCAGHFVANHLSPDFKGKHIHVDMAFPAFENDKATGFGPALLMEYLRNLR
Experiment: continuous chromogenic assay of purified rTcLAP with Leu-pNA at […] nm, […] min preincubation
Type: biochemical

IC50: 66 ± 13.5 µM
Compound: CC(C)C[C@@H](C(=O)O)N(C(=O)[C@H](N)Cc1ccccc1)C(C(=O)NCc1ccccc1)c1ccco1 (stereo partly shown) [KBE009]

— PMC8540442, “KBE009: A Bestatin-Like Inhibitor of the Trypanosoma cruzi Acidic M17 Aminopeptidase with In Vitro Anti-Trypanosomal Activity” (Life, 2021)
